Measured values published in US20230257396A1, “MACROCYCLES AND THEIR USE” (BLOSSOMHILL THERAPEUTICS, INC., priority 2020, published 2023).

Assays:
Assay in all cases: KINOMEscan kinase binding assay (Eurofins/DiscoveRx), % Ctrl
Settings in all cases: 1 μM
kinases [1] = target: T1, kinases (Homo sapiens, UniProt P16234)
T1 construct: purchased Eurofins/DiscoveRx; host or cells: E. coli BL21-derived host (T7 phage display) for most kinases; HEK-293 for the rest
Protocol: (§1) Kinase binding assays were performed at Eurofins/DiscoveRx using the general KINOMEscan Protocol (Fabian, M. A. et al., “A small molecule-kinase interaction map for clinical kinase inhibitors,” Nat. Biotechnol. 2005, 23(3):329-36). For most assays, kinase-tagged T7 phage strains were prepared in an E. coli host derived from the BL21 strain. E. coli were grown to log-phase and infected with T7 phage and incubated with shaking at 32° C. until lysis. The lysates were centrifuged and filtered to remove cell debris. The remaining kinases were produced in HEK-293 cells and subsequently tagged with DNA for qPCR detection. Streptavidin-coated magnetic beads were treated with biotinylated small molecule ligands for 30 minutes at room temperature to generate affinity resins for kinase assays. The liganded beads were blocked with excess biotin and washed with blocking buffer (SeaBlock (Pierce), 1% BSA, 0.05% Tween 20, 1 mM DTT) to remove unbound ligand and to reduce nonspecific binding. Binding reactions were assembled by combining kinases, liganded affinity beads, and test compounds in 1×binding buffer (20% SeaBlock, 0.17×PBS, 0.05% Tween 20, 6 mM DTT). All reactions were performed in polystyrene 96-well plates in a final volume of 0.135 mL. The assay plates were incubated at room temperature with shaking for 1 hour and the affinity beads were washed with washbuffer (1×PBS, 0.05% Tween 20). The beads were then re-suspended in elution buffer (1× PBS, 0.05% Tween 20, 0.5 μM non-biotinylated affinity ligand) and incubated at room temperature with shaking for 30 minutes. The kinase concentration in the eluates was measured by qPCR. Results for compounds tested in this assay at a given concentration are reported as “% Ctrl”, where lower numbers indicate stronger binding in the matrix.
(§2) (test compound signal-positive control signal)/(negative control signal-positive control signal) X100

kinases [2] = target: T2, kinases (Homo sapiens, UniProt P00533, DEL752-759)
T2 construct: purchased Eurofins/DiscoveRx; host or cells: E. coli BL21-derived host (T7 phage display) for most kinases; HEK-293 for the rest
Protocol: as §1, §2

kinases [3] = target: T3, kinases (Homo sapiens, UniProt P09619)
T3 construct: purchased Eurofins/DiscoveRx; host or cells: E. coli BL21-derived host (T7 phage display) for most kinases; HEK-293 for the rest
T3 sequence (P09619 33-1106): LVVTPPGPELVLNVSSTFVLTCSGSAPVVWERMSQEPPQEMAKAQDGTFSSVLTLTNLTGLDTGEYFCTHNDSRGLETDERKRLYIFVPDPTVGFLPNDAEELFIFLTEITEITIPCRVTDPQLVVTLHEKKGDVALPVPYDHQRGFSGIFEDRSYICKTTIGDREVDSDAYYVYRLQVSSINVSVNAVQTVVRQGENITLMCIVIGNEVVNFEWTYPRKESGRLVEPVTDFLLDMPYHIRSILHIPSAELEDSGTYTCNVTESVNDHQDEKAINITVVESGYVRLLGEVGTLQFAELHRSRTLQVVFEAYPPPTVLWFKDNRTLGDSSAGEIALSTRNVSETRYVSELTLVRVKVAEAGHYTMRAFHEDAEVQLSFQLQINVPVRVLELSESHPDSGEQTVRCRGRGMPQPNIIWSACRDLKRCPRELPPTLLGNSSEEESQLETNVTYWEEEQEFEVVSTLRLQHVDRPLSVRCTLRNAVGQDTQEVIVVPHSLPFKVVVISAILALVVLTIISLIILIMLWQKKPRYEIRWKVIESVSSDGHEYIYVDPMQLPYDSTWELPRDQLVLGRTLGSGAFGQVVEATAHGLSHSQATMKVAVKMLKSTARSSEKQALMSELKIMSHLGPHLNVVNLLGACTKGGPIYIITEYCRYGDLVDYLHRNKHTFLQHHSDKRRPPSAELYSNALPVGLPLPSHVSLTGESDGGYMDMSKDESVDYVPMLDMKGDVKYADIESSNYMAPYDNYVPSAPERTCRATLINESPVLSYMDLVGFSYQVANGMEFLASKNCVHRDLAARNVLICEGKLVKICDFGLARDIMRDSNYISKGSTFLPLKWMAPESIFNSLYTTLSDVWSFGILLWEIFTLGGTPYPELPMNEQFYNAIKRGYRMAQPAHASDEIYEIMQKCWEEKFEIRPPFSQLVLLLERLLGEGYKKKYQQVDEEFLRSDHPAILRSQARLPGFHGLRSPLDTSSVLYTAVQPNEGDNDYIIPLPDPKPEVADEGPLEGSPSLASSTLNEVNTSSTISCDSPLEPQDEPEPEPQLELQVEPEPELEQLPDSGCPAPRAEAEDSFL
Protocol: as §1, §2

kinases [4] = target: T4, kinases (Homo sapiens, UniProt P10721)
T4 construct: purchased Eurofins/DiscoveRx; host or cells: E. coli BL21-derived host (T7 phage display) for most kinases; HEK-293 for the rest
T4 sequence (P10721 26-976): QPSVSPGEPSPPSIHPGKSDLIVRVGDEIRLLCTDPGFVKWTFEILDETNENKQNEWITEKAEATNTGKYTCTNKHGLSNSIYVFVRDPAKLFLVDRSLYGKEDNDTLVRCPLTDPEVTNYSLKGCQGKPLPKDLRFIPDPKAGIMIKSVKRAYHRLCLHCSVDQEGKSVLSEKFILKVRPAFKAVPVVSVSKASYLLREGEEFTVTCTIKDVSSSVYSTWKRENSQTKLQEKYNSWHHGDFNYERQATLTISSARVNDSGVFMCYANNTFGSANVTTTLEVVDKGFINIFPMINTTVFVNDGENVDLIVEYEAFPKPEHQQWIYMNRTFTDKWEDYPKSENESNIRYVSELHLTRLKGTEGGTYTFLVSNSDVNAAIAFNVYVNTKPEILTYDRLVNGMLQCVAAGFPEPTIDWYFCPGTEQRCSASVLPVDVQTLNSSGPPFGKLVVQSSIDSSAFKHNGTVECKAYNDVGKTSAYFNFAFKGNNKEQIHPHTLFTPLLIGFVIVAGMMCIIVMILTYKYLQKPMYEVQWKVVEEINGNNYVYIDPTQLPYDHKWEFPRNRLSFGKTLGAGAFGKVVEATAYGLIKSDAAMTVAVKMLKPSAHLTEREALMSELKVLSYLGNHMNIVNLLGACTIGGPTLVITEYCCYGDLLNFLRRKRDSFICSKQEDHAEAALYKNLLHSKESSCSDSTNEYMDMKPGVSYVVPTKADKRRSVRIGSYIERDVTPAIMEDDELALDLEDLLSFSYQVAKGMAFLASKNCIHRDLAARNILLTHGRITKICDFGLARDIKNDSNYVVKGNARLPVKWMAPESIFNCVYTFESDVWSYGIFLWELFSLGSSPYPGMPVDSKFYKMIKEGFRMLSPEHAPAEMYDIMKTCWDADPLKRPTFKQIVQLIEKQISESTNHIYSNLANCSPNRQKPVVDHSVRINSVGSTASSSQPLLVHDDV
Protocol: as §1, §2

kinases [5] = target: T5, kinases (Homo sapiens, UniProt P00533, G719C)
T5 construct: purchased Eurofins/DiscoveRx; host or cells: E. coli BL21-derived host (T7 phage display) for most kinases; HEK-293 for the rest
Protocol: as §1, §2

kinases [6] = target: T6, kinases (Homo sapiens, UniProt P10721, V559D)
T6 construct: purchased Eurofins/DiscoveRx; host or cells: E. coli BL21-derived host (T7 phage display) for most kinases; HEK-293 for the rest
T6 sequence (P10721 26-976 V559D): as the sequence (P10721 26-976) above, with V534D counted along it
Protocol: as §1, §2

kinases [7] = target: T7, kinases (Homo sapiens, UniProt P17948)
T7 construct: purchased Eurofins/DiscoveRx; host or cells: E. coli BL21-derived host (T7 phage display) for most kinases; HEK-293 for the rest
T7 sequence (P17948 27-1338): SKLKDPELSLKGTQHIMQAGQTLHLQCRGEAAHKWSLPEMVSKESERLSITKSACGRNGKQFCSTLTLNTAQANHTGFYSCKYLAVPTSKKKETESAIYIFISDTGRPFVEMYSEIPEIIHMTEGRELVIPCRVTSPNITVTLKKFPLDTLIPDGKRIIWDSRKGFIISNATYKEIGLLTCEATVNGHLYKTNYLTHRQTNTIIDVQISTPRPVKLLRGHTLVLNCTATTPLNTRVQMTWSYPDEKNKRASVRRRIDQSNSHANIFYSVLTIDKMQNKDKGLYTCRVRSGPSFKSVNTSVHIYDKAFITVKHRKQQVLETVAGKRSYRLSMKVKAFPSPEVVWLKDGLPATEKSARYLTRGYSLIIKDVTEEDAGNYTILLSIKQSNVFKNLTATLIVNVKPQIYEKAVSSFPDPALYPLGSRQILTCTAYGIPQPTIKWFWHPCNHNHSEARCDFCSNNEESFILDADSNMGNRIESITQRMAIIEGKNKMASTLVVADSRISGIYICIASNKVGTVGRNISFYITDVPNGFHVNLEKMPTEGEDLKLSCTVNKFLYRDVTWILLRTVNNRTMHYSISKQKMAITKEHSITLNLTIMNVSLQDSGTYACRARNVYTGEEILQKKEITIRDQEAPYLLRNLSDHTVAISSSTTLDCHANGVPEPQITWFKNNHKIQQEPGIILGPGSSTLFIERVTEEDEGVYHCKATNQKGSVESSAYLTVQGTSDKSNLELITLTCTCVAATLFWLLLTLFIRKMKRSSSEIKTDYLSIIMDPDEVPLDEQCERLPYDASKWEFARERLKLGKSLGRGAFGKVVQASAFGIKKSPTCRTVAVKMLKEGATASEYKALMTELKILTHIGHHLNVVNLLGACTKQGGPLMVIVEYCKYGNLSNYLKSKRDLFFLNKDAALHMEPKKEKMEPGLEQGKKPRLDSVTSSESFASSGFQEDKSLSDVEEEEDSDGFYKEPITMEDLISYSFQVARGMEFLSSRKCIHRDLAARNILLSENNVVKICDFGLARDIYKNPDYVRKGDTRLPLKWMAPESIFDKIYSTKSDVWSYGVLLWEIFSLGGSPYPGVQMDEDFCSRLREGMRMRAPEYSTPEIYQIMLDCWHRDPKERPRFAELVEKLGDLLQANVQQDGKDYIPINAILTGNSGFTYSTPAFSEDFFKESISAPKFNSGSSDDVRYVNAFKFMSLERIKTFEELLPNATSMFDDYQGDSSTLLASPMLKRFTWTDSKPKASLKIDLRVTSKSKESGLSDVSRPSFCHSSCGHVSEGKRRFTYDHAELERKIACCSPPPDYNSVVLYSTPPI
Protocol: as §1, §2

kinases [8] = target: T8, kinases (Homo sapiens, UniProt P00533, L858R)
T8 construct: purchased Eurofins/DiscoveRx; host or cells: E. coli BL21-derived host (T7 phage display) for most kinases; HEK-293 for the rest
Protocol: as §1, §2

kinases [9] = target: T9, kinases (Homo sapiens, UniProt P10721, D816V)
T9 construct: purchased Eurofins/DiscoveRx; host or cells: E. coli BL21-derived host (T7 phage display) for most kinases; HEK-293 for the rest
T9 sequence (P10721 26-976 D816V): as the sequence (P10721 26-976) above, with D791V counted along it
Protocol: as §1, §2

kinases [10] = target: T10, kinases (Homo sapiens, UniProt P00519)
T10 construct: purchased Eurofins/DiscoveRx; host or cells: E. coli BL21-derived host (T7 phage display) for most kinases; HEK-293 for the rest
Protocol: as §1, §2

kinases [11] = target: T11, kinases (Homo sapiens, UniProt P36888, D835H)
T11 construct: purchased Eurofins/DiscoveRx; host or cells: E. coli BL21-derived host (T7 phage display) for most kinases; HEK-293 for the rest
T11 sequence (P36888 27-993 D835H): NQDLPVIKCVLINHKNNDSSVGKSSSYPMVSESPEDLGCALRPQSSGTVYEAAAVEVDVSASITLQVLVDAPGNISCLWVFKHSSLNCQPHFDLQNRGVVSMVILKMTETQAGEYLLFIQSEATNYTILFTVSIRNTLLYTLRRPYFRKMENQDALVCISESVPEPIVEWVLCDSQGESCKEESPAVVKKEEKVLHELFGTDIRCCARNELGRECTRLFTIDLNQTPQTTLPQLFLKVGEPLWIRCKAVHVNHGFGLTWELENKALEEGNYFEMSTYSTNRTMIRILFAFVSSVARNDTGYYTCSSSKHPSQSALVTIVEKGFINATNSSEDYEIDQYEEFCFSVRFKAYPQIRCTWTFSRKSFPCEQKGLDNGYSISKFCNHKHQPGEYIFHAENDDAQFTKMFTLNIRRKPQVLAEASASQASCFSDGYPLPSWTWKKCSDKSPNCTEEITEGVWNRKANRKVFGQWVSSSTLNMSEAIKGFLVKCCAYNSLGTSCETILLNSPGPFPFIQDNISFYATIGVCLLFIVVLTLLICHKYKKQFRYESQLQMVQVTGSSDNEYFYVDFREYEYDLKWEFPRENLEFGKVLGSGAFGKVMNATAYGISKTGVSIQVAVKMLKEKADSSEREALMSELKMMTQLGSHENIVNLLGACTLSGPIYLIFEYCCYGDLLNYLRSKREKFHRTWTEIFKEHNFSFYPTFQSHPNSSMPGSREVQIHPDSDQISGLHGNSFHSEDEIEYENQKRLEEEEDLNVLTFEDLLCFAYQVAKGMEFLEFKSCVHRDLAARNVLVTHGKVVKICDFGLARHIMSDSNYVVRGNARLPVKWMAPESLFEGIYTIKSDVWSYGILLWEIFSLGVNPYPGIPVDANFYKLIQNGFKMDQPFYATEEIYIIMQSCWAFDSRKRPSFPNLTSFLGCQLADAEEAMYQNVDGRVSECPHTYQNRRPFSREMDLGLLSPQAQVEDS
Protocol: as §1, §2

kinases [12] = target: T12, kinases (Homo sapiens, UniProt P00519, F317I)
T12 construct: purchased Eurofins/DiscoveRx; host or cells: E. coli BL21-derived host (T7 phage display) for most kinases; HEK-293 for the rest
Protocol: as §1, §2

kinases [13] = target: T13, kinases (Homo sapiens, UniProt P35916)
T13 construct: purchased Eurofins/DiscoveRx; host or cells: E. coli BL21-derived host (T7 phage display) for most kinases; HEK-293 for the rest
Protocol: as §1, §2

[14] = target ABL1(F317I)-nonphosphorylated
[15] = target ABL1(F317I)-phosphorylated

T1 sequence (P16234 24-1089): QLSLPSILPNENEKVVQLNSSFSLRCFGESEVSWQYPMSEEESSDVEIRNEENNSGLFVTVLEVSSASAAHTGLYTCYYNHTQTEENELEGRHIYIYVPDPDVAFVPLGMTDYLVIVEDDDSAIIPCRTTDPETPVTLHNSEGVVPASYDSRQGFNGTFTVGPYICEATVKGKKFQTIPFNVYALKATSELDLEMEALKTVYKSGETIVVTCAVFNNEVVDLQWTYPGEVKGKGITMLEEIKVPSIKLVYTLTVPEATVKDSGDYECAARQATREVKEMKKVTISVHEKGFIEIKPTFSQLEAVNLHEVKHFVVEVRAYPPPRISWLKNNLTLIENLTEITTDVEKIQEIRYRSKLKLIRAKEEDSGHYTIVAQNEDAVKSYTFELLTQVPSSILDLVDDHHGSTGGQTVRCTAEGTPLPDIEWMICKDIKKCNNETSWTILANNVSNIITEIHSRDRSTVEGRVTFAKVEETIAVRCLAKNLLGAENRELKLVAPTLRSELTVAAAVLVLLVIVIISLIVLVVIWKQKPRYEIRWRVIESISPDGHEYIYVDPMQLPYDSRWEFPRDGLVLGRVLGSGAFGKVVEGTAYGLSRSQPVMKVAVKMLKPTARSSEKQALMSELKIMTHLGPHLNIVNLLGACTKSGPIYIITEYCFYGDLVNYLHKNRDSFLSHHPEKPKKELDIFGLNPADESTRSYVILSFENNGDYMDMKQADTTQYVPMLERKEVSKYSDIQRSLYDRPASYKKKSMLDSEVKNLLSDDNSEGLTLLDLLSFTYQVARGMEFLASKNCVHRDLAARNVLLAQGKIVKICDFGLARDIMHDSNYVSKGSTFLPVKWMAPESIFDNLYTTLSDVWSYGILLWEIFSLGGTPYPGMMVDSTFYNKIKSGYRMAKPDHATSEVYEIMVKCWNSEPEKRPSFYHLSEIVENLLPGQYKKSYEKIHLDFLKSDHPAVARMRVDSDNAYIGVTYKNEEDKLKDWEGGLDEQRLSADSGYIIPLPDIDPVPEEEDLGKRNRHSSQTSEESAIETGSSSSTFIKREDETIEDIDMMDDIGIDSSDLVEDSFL

| Compound | % Ctrl, PDGFRA (kinases [1]; PDGFRA) [% Ctrl] | % Ctrl, EGFR(S752-I759del) (kinases [2]; EGFR(S752-I759del)) [% Ctrl] | % Ctrl, PDGFRB (kinases [3]; PDGFRB) [% Ctrl] | % Ctrl, KIT (kinases [4]; KIT) [% Ctrl] | % Ctrl, PDGFRA (kinases [1]; target PDGFRA) [% Ctrl] | % Ctrl, EGFR(S752-I759del) (kinases [2]; target EGFR(S752-I759del)) [% Ctrl] | % Ctrl, PDGFRB (kinases [3]; target PDGFRB) [% Ctrl] | % Ctrl, KIT (kinases [4]; target KIT) [% Ctrl] | % Ctrl, KIT-autoinhibited (kinases [4]; target KIT-autoinhibited) [% Ctrl] | % Ctrl, EGFR(G719C) (kinases [5]; target EGFR(G719C)) [% Ctrl] | % Ctrl, KIT(V559D) (kinases [6]; target KIT(V559D)) [% Ctrl] | % Ctrl, FLT1 (kinases [7]; target FLT1) [% Ctrl] | % Ctrl, EGFR(L858R) (kinases [8]; target EGFR(L858R)) [% Ctrl] | % Ctrl, KIT(D816V) (kinases [9]; target KIT(D816V)) [% Ctrl] | % Ctrl, ABL1-nonphosphorylated (kinases [10]; target ABL1-nonphosphorylated) [% Ctrl] | % Ctrl, ABL1-phosphorylated (kinases [10]; target ABL1-phosphorylated) [% Ctrl] | % Ctrl, FLT3(D835H) (kinases [11]; target FLT3(D835H)) [% Ctrl] | % Ctrl, ABL1(F317I)-nonphosphorylated (kinases [12]; [14]) [% Ctrl] | % Ctrl, ABL1(F317I)-phosphorylated (kinases [12]; [15]) [% Ctrl] | % Ctrl, FLT4 (kinases [13]; target FLT4) [% Ctrl] | other results |
| --- | --- | --- | --- | --- | --- | --- | --- | --- | --- | --- | --- | --- | --- | --- | --- | --- | --- | --- | --- | --- | --- |
| Cc1cc2c([nH]1)/C=C1\C(=O)Nc3cc(Cl)c(cc31)OCCOCCN(C)C2=O [Ex. 131, [16a(17)Z]-19-chloro-2,5-dimethyl-6,7,9,10-tetrahydro-1H-12,14-(ethanediylidene)dipyrrolo[3,2-i:3′,4′-l][1,4,7]dioxazacyclopentadecine-4,16(5H,15H)-dione] | 7.7 | 70 | 1.4 | 1.1 | – | – | – | – | – | – | – | – | – | – | – | – | – | – | – | – | % Ctrl, KIT-autoinhibited (kinases [4]; KIT-autoinhibited): 13 % Ctrl; % Ctrl, EGFR(G719C) (kinases [5]; EGFR(G719C)): 93 % Ctrl; % Ctrl, KIT(V559D) (kinases [6]; KIT(V559D)): 0.15 % Ctrl; % Ctrl, FLT1 (kinases [7]; FLT1): 4 % Ctrl; % Ctrl, EGFR(L858R) (kinases [8]; EGFR(L858R)): 56 % Ctrl; % Ctrl, KIT(D816V) (kinases [9]; KIT(D816V)): 1.2 % Ctrl; % Ctrl, ABL1-nonphosphorylated (kinases [10]; ABL1-nonphosphorylated): 0 % Ctrl; % Ctrl, ABL1-phosphorylated (kinases [10]; ABL1-phosphorylated): 0 % Ctrl; % Ctrl, FLT3(D835H) (kinases [11]; FLT3(D835H)): 0 % Ctrl; % Ctrl, ABL1(F317I)-nonphosphorylated (kinases [12]; ABL1(F317I)-nonphosphorylated): 0 % Ctrl; % Ctrl, ABL1(F317I)-phosphorylated (kinases [12]; ABL1(F317I)-phosphorylated): 3.5 % Ctrl; % Ctrl, FLT4 (kinases [13]; FLT4): 0 % Ctrl |
| CN1CCOc2cc3c(cc2Cl)NC(=O)/C3=C\c2[nH]ccc2C(=O)N(C)CC1 [Ex. 164, [16a(17)Z]-19-chloro-2,5,8-trimethyl-5,6,7,8,9,10-hexahydro-12,14-(ethanediylidene)dipyrrolo[3,2-i:3′,4′-l][1,4,7]oxadiazacyclopentadecine-4,16(1H,15H)-dione] | – | – | – | – | 30 | 55 | 0.9 | 18 | 81 | 82 | 6.9 | 13 | 45 | 3.3 | 0.1 | 0.1 | 0.3 | 5.7 | 6.7 | 0.2 | – |
| Cc1cc2c([nH]1)/C=C1\C(=O)Nc3cnc(cc31)-c1cnn(C)c1CN(C)CCN(C)C2=O [Ex. 172, [3a(4)Z]-6,9,12,14-tetramethyl-9,10,11,12,13,14-hexahydro-17,1-(azenometheno)pyrazolo[4,3-m]dipyrrolo[3,2-f:3′,4′-i][1,4]diazacyclopentadecine-3,8(2H,5H)-dione] | – | – | – | – | 44 | 37 | 1.9 | 68 | 100 | 100 | 42 | 26 | 48 | 0.8 | 0.6 | 1.4 | 4.2 | 24 | 9.3 | 1.7 | – |
| Cc1cc2c([nH]1)/C=C1\C(=O)Nc3cc(Cl)c(cc31)SCCOCCN(C)C2=O [Ex. 169, [16a(17)Z]-19-chloro-5-methyl-6,7,9,10-tetrahydro-1H-12,14-(ethanediylidene)dipyrrolo[3,4-g:2′,3′-j][1,4,13]oxathiazacyclopentadecine-4,16(5H,15H)-dione] | – | – | – | – | 16 | 61 | 0.9 | 7.5 | 25 | 100 | 1.2 | 12 | 52 | 1.6 | 0 | 0 | 0.1 | 0.6 | 5 | 0.1 | – |
| Cc1cc2c([nH]1)/C=C1\C(=O)Nc3ccc(nc31)-c1ccccc1OCCCNC2=O [Ex.22, [3a(4)Z]-6-methyl-9,10,11,12-tetrahydro-1,18-(ethanediylidene)dipyrrolo[3,2-g:3′,4′-j][1,5,12]benzoxadiazacyclopentadecine-3,8(2H,5H)-dione] | 100 | 72 | 100 | 100 | – | – | – | – | – | – | – | – | – | – | – | – | – | – | – | – | % Ctrl, KIT-autoinhibited (kinases [4]; KIT-autoinhibited): 100 % Ctrl; % Ctrl, EGFR(G719C) (kinases [5]; EGFR(G719C)): 93 % Ctrl; % Ctrl, KIT(V559D) (kinases [6]; KIT(V559D)): 96 % Ctrl; % Ctrl, FLT1 (kinases [7]; FLT1): 100 % Ctrl; % Ctrl, EGFR(L858R) (kinases [8]; EGFR(L858R)): 67 % Ctrl; % Ctrl, KIT(D816V) (kinases [9]; KIT(D816V)): 96 % Ctrl; % Ctrl, ABL1-nonphosphorylated (kinases [10]; ABL1-nonphosphorylated): 71 % Ctrl; % Ctrl, ABL1-phosphorylated (kinases [10]; ABL1-phosphorylated): 69 % Ctrl; % Ctrl, FLT3(D835H) (kinases [11]; FLT3(D835H)): 89 % Ctrl; % Ctrl, ABL1(F317I)-nonphosphorylated (kinases [12]; ABL1(F317I)-nonphosphorylated): 88 % Ctrl; % Ctrl, ABL1(F317I)-phosphorylated (kinases [12]; ABL1(F317I)-phosphorylated): 100 % Ctrl; % Ctrl, FLT4 (kinases [13]; FLT4): 92 % Ctrl |
